Source: PubChem BioAssay AID330 (DTP/NCI, 2004)
“And” between values parts separate entries of the source, which are not always exact repeats. Equal values may be shown once. Toxic doses and inconclusive results are not listed. How the source made its calls: active means survival T/C of 150% or more; inactive means T/C below 125% in these data.

Test system: P388 leukemia ip, CD2F1 mice, survival T/C
Assay: NCI In Vivo Anticancer Drug Screen. Data for tumor model P388 Leukemia (intraperitoneal) in CD2F1 (CDF1) mice
Details: endpoint: median survival time, higher = longer survival
Summary of the method: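 Mice carrying the transplanted tumor received test compound or vehicle. Survival was recorded in each group, and the value is the treated-group measurement divided by that of the vehicle-treated control group.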

[1] = dose: 50.0 mg/kg/injection, schedule: Q01DX005 (ip), vehicle: Klucel (hydroxypropylcellulose) (HPC)
[2] = dose: 100.0 mg/kg/injection, schedule: Q01DX005 (ip), vehicle: Klucel (hydroxypropylcellulose) (HPC)
[3] = dose: 50.0 mg/kg/injection, schedule: Q01DX005 (ip), vehicle: saline with Tween-80
[4] = dose: 50.0 mg/kg/injection, schedule: Q01DX009 (ip), vehicle: saline with Tween-80
[5] = dose: 100.0 mg/kg/injection, schedule: Q01DX009 (ip), vehicle: saline with Tween-80
[6] = dose: 100.0 mg/kg/injection, schedule: Q01DX005 (ip), vehicle: saline with Tween-80
[7] = dose: 50.0 mg/kg/injection, schedule: Q01DX009 (ip), vehicle: saline
[8] = dose: 100.0 mg/kg/injection, schedule: Q01DX009 (ip), vehicle: saline
[9] = dose: 200.0 mg/kg/injection, schedule: Q01DX009 (ip), vehicle: saline
[10] = dose: 100.0 mg/kg/injection, schedule: Q04DX003 (ip), vehicle: Klucel (hydroxypropylcellulose) (HPC)
[11] = dose: 200.0 mg/kg/injection, schedule: Q04DX003 (ip), vehicle: Klucel (hydroxypropylcellulose) (HPC)

Measured: T/C

COc1ccc2c(c1OC)C(O)N1CCc3cc4c(cc3C1=C2C(=O)c1ccccc1)OCO4 (centres undefined)
inactive: dose: 12.5 mg/kg/injection, schedule: Q01DX005 (ip), vehicle: Klucel (hydroxypropylcellulose) (HPC) 100 % of control and 106 % of control | dose: 25.0 mg/kg/injection, schedule: Q01DX005 (ip), vehicle: Klucel (hydroxypropylcellulose) (HPC) 100 % of control and 94 % of control | [1] 103 % of control (2×) and 123 % of control | [2] 111 % of control

CC1=CC(=O)C(O)C2(C)C1CC1OC(=O)CC3C(C)C(O)C4(O)OCC13C42 (centres undefined)
inactive: dose: 5.0 mg/kg/injection, schedule: Q01DX009 (ip), vehicle: Klucel (hydroxypropylcellulose) (HPC) 107 % of control | dose: 10.0 mg/kg/injection, schedule: Q01DX009 (ip), vehicle: Klucel (hydroxypropylcellulose) (HPC) 117 % of control | dose: 20.0 mg/kg/injection, schedule: Q01DX009 (ip), vehicle: Klucel (hydroxypropylcellulose) (HPC) 123 % of control

CCSC(C(OC(C)=O)C(OC(C)=O)C(OC(C)=O)C(COC(C)=O)OC(C)=O)n1cnc2c(=S)nc[nH]c21 (centres undefined)
inactive: [3] 107 % of control | dose: 200.0 mg/kg/injection, schedule: Q01DX005 (ip), vehicle: saline with Tween-80 87 % of control

COc1ccc(/C=C2\C(=O)N(Cc3ccco3)SC2=S)c(OC)c1OC
inactive: [4] 90 % of control | [5] 90 % of control | dose: 200.0 mg/kg/injection, schedule: Q01DX009 (ip), vehicle: saline with Tween-80 106 % of control

COc1ccc(/C=C/C(C)=N/NC(N)=S)cc1OC
inactive: dose: 12.5 mg/kg/injection, schedule: Q01DX005 (ip), vehicle: saline with Tween-80 104 % of control | dose: 25.0 mg/kg/injection, schedule: Q01DX005 (ip), vehicle: saline with Tween-80 106 % of control | [3] 105 % of control and 112 % of control | [6] 93 % of control

C=CCn1cc2c3c(cccc31)C1CC(C)CN(C)C1C2 (centres undefined)
inactive: [3] 99 % of control | [6] 111 % of control

O=P(O)(O)OC1C(OP(=O)(O)O)C(OP(=O)(O)O)C(OP(=O)(O)O)C(OP(=O)(O)O)C1OP(=O)(O)O (centres undefined)
inactive: [7] 94 % of control | [8] 94 % of control | [9] 102 % of control

c1ccc2c(c1)[nH]c1nc3ncncc3nc12
inactive: [7] 100 % of control | [8] 100 % of control | [9] 100 % of control

CCCCCCCCCCCCCCCC(=O)Nc1cccc2c[n+](CC(=O)c3ccc(NC(=O)CCC(=O)OC)cc3)ccc12
inactive: dose: 100.0 mg/kg/injection, schedule: Q01DX001 (ip), vehicle: saline with Tween-80 90 % of control | dose: 200.0 mg/kg/injection, schedule: Q01DX001 (ip), vehicle: saline with Tween-80 86 % of control | dose: 400.0 mg/kg/injection, schedule: Q01DX001 (ip), vehicle: saline with Tween-80 109 % of control

CC(NC(=O)c1ccc(Cl)cc1Cl)c1ccccc1 (centres undefined)
inactive: dose: 50.0 mg/kg/injection, schedule: Q01DX001 (ip), vehicle: other 98 % of control | dose: 100.0 mg/kg/injection, schedule: Q01DX001 (ip), vehicle: other 97 % of control | dose: 200.0 mg/kg/injection, schedule: Q01DX001 (ip), vehicle: other 96 % of control | dose: 400.0 mg/kg/injection, schedule: Q01DX001 (ip), vehicle: other 94 % of control

CC1(C)O[C@H]2CC(=O)OC[C@]23[C@H]2CC[C@@]4(C)C(c5ccoc5)OC(=O)[C@H]5O[C@]54[C@]2(C)[C@@H](OC(=O)CCl)C[C@@H]13 (some centres undefined)
inactive: dose: 0.5 mg/kg/injection, schedule: Q01DX009 (ip), vehicle: saline + alcohol 113 % of control | dose: 1.0 mg/kg/injection, schedule: Q01DX009 (ip), vehicle: saline + alcohol 111 % of control

O=S(=O)(CCCl)c1ccccc1
inactive: [10] 104 % of control | [11] 106 % of control | dose: 400.0 mg/kg/injection, schedule: Q04DX003 (ip), vehicle: Klucel (hydroxypropylcellulose) (HPC) 97 % of control

NC(CCC(=O)NC(CS)C(=O)O)C(=O)O (centres undefined)
inactive: [7] 100 % of control | [8] 111 % of control

COC1=C(C)C2CC(=O)OC3C(O)C4C(C)CC(O)C(=O)C4(C)C(C1=O)C23C (centres undefined)
inactive: dose: 3.0 mg/kg/injection, schedule: Q01DX009 (ip), vehicle: alcohol 105 % of control | dose: 6.0 mg/kg/injection, schedule: Q01DX009 (ip), vehicle: alcohol 104 % of control | dose: 12.0 mg/kg/injection, schedule: Q01DX009 (ip), vehicle: alcohol 107 % of control

C[Si](C)(C)C#CC(C(O)c1ccccc1)N1CCCC1 (centres undefined)
inactive: dose: 100.0 mg/kg/injection, schedule: Q04DX003 (ip), vehicle: saline 94 % of control | dose: 200.0 mg/kg/injection, schedule: Q04DX003 (ip), vehicle: saline 92 % of control | dose: 400.0 mg/kg/injection, schedule: Q04DX003 (ip), vehicle: saline 101 % of control

CC(C)c1ccc(/C=N\NC(=S)N/N=C\c2ccc(C(C)C)cc2)cc1
inactive: dose: 6.25 mg/kg/injection, schedule: Q01DX009 (ip), vehicle: Klucel (hydroxypropylcellulose) (HPC) 96 % of control | dose: 12.5 mg/kg/injection, schedule: Q01DX009 (ip), vehicle: Klucel (hydroxypropylcellulose) (HPC) 86 % of control

O=C(O)c1nccc2ccccc12
inactive: dose: 12.5 mg/kg/injection, schedule: Q01DX009 (ip), vehicle: saline with Tween-80 103 % of control | dose: 25.0 mg/kg/injection, schedule: Q01DX009 (ip), vehicle: saline with Tween-80 103 % of control | [4] 105 % of control | [5] 106 % of control

Cc1ccc(Nc2cc(C(=O)O)c(Nc3ccc(C)cc3)cc2C(=O)O)cc1
inactive: dose: 50.0 mg/kg/injection, schedule: Q01DX009 (ip), vehicle: Klucel (hydroxypropylcellulose) (HPC) 102 % of control | dose: 100.0 mg/kg/injection, schedule: Q01DX009 (ip), vehicle: Klucel (hydroxypropylcellulose) (HPC) 111 % of control | dose: 200.0 mg/kg/injection, schedule: Q01DX009 (ip), vehicle: Klucel (hydroxypropylcellulose) (HPC) 102 % of control

C/C=C1/CN2CCC34c5ccccc5N(C)C23C2CC1C4(C(=O)OC)C(OC(C)=O)O2 (centres undefined)
inactive: dose: 9.25 mg/kg/injection, schedule: Q01DX005 (ip), vehicle: saline + Tween-80 + alcohol 96 % of control | dose: 18.5 mg/kg/injection, schedule: Q01DX005 (ip), vehicle: saline + Tween-80 + alcohol 106 % of control | dose: 37.0 mg/kg/injection, schedule: Q01DX005 (ip), vehicle: saline + Tween-80 + alcohol 112 % of control | dose: 74.0 mg/kg/injection, schedule: Q01DX005 (ip), vehicle: saline + Tween-80 + alcohol 100 % of control

CCN(CC)C1=Nc2ccccc2N(c2ccccc2)C(SC)=C1
inactive: [1] 111 % of control | [2] 100 % of control | dose: 200.0 mg/kg/injection, schedule: Q01DX005 (ip), vehicle: Klucel (hydroxypropylcellulose) (HPC) 97 % of control

Cc1ccc(S(=O)(=O)N2C(=O)CCC2=O)cc1
inactive: [10] 106 % of control | dose: 100.0 mg/kg/injection, schedule: Q04DX003 (ip), vehicle: saline with Tween-80 105 % of control | [11] 120 % of control | dose: 200.0 mg/kg/injection, schedule: Q04DX003 (ip), vehicle: saline with Tween-80 100 % of control | dose: 400.0 mg/kg/injection, schedule: Q04DX003 (ip), vehicle: saline with Tween-80 110 % of control

CC[N+]1=C(C2=NCCc3ccccc32)c2ccccc2CC1
inactive: dose: 12.5 mg/kg/injection, schedule: Q01DX005 (ip), vehicle: saline 104 % of control | dose: 25.0 mg/kg/injection, schedule: Q01DX005 (ip), vehicle: saline 98 % of control | [3] 92 % of control | dose: 50.0 mg/kg/injection, schedule: Q01DX005 (ip), vehicle: saline 100 % of control
